Reference: article PMC9402538, “Rational design of a sensitivity-enhanced tracer for discovering efficient APC–Asef inhibitors” (Nature Communications, 2022)
Read-outs that look alike come from different tables or passages of the source. Where a SMILES comes first, the peptide text is derived from it. [ ]: non-standard residue; d: D form. The star is where a group is joined. Bpa = N[C@@H](Cc1ccc(C(=O)c2ccccc2)cc1)C(=O)O; 2Furoyl = O=C(c1ccco1)*; X1 = CSc1nccc(C(=O)*)n1; Bz = O=C(c1ccccc1)*

Tests used:
[1] = target: T1, APC (Homo sapiens, UniProt P25054); assay: FP competitive assay using tracer 1; type: binding
T1 sequence (P25054 303-739): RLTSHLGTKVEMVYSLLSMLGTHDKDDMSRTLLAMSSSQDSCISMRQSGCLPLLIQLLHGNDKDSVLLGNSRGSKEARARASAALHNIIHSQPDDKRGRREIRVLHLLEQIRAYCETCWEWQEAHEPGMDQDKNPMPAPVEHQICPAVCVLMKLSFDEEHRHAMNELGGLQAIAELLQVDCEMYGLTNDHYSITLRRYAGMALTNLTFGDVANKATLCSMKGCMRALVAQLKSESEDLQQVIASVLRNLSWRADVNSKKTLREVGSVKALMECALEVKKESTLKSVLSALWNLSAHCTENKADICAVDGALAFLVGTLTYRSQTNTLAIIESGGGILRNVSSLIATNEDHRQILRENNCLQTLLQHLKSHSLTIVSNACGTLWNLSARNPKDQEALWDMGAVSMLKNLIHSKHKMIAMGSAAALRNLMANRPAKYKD
Description: In our previous study, we established an FP assay for screening APC–Asef inhibitors using FITC-labeled tracer 1 (Ac–^176[…][FITC]^195–NH2)[16]. […]. However, their Kd values measured by isothermal titration calorimetry (ITC) actually vary up to more than 20 times[16],[17]. […].
FITC-labeled tracer peptides were obtained from Changzhou Kanglong Biotech Ltd. (Changzhou, Jiangsu, China). […]. The FP signal changes upon tracer binding were measured after 1.5 h of incubation using a Synergy neo microplate reader (BioTek Instruments, Inc.) and plotted against the protein concentration. The corresponding EC50 values were generated by fitting the curves with a nonlinear regression model. […]. To make a working solution, APC (303–739) was diluted in FP buffer (50 mM HEPES, pH 7.5, 300 mM NaCl, 1 mM EDTA, 1 mM DTT). […] The FP signals were measured after 1.5 h of incubation at room temperature using a Synergy neo microplate reader. Three controls were included on each plate, i.e., blank (without protein and tracer), 100% inhibition (free tracer only), and 0% inhibition (protein/tracer complex only) controls. All experiments were performed in triplicate. The IC50 values of peptides were calculated by nonlinear regression analysis using GraphPad Prism 7.0 software.

[2] = target: T2, APC (303–739) (Homo sapiens, UniProt P25054); assay: FP competitive assay using tracer 7; type: binding; settings: IC50, Tracer 7, Supplementary Table 4
T2 sequence (P25054 303-739): T1 sequence (P25054 303-739)
Description: FITC-labeled tracer peptides were obtained from Changzhou Kanglong Biotech Ltd. (Changzhou, Jiangsu, China). […]. The FP signal changes upon tracer binding were measured after 1.5 h of incubation using a Synergy neo microplate reader (BioTek Instruments, Inc.) and plotted against the protein concentration. The corresponding EC50 values were generated by fitting the curves with a nonlinear regression model. […]. To make a working solution, APC (303–739) was diluted in FP buffer (50 mM HEPES, pH 7.5, 300 mM NaCl, 1 mM EDTA, 1 mM DTT). The diluted APC protein (91 μL) was combined with a serial dilution of peptides (4 μL) and incubated at room temperature for 1 h, followed by the addition of 5 μL of 400 nM tracer 7. The FP signals were measured after 1.5 h of incubation at room temperature using a Synergy neo microplate reader. Three controls were included on each plate, i.e., blank (without protein and tracer), 100% inhibition (free tracer only), and 0% inhibition (protein/tracer complex only) controls. All experiments were performed in triplicate. The IC50 values of peptides were calculated by nonlinear regression analysis using GraphPad Prism 7.0 software.

IC50 ([1]; Supplementary Table 4, read-out: IC50, Tracer 1) [µM]	Compound	IC50 [1] [µM]	IC50 [2] [µM]
	CC(C)C[C@H](NC(=O)[C@H](CO)NC(=O)[C@H](CCC(=O)O)NC(=O)CNC(=O)[C@H](C)NC(=O)c1ccccc1)C(=O)N[C@@H](Cc1c[nH]c2ccccc12)C(=O)N[C@@H](CCC(=O)O)C(N)=O [MAI-452] (Bz-AGESLWE-NH2)	0.44 ± 0.15	0.17 ± 0.01
	CC(C)C[C@H](NC(=O)[C@H](CO)NC(=O)[C@H](CCC(=O)O)NC(=O)CNC(=O)[C@H](C)NC(=O)c1ccco1)C(=O)N[C@@H](Cc1ccc(O)cc1)C(=O)N[C@@H](Cc1ccc(C(=O)c2ccccc2)cc1)C(N)=O [MAI-454] (2Furoyl-AGESLY[Bpa]-NH2)	0.48 ± 0.15	
0.57 ± 0.12	CSc1nccc(C(=O)N[C@@H](C)C(=O)NCC(=O)N[C@@H](CCC(=O)O)C(=O)N[C@@H](CO)C(=O)N[C@@H](CC(C)C)C(=O)N[C@@H](Cc2ccc(O)cc2)C(=O)N[C@@H](CCC(=O)O)C(N)=O)n1 [MAI-456] (X1-AGESLYE-NH2)		
	CC(C)C[C@H](NC(=O)[C@H](CO)NC(=O)[C@H](CCC(=O)O)NC(=O)CNC(=O)[C@H](C)NC(=O)c1ccccc1)C(=O)N[C@@H](Cc1ccc(O)cc1)C(=O)N[C@@H](Cc1ccc(C(=O)c2ccccc2)cc1)C(N)=O [MAI-457] (Bz-AGESLY[Bpa]-NH2)	0.59 ± 0.2	
